Source: PMC7022466, “Developing Clinically Relevant Dissolution Specifications for Oral Drug Products—Industrial and Regulatory Perspectives” (Pharmaceutics, 2019)
Like-named read-outs stand apart in the source and are kept apart here.

Key:
[1] = Solubility in biorelevant media; assay type: physicochemical
From the text: (§1) In a first step, the physico-chemical characteristics of both API forms were compared in biorelevant media. Table 1 provides an overview of the solubility data and intrinsic dissolution properties. For both API forms, the compound is practically insoluble in water, irrespective of pH, but it undergoes substantial solubilization in the presence of bile. […] However, as the solubility of the newly isolated form is about 40% lower when compared to canagliflozin hemihydrate, the bioavailability in the fasted state conditions remains uncertain.

[2] = Intrinsic dissolution rate in biorelevant media; assay type: physicochemical
From the text: as §1

BCS classification = assay type: physicochemical
From the text: The Biopharmaceutics Classification System (BCS) provides a well-established framework for assessing the biopharmaceutics risk of immediate release drug products, based on properties of the Active Pharmaceutical Ingredient (API) and drug product. The compounds are classified into one of four groups, according to their solubility and permeability properties. Compounds in BCS Class 1 (high solubility, high permeability) and BCS Class 3 (high solubility, low permeability) are eligible for biowaivers, i.e., the requirement for an in vivo bioequivalence study is waived if certain requirements are met. For the development of CRDS for these compounds, the BCS effectively acts as an accepted body of ‘prior knowledge’, as the ability of dissolution in simple aqueous buffers across the physiological pH range to ensure in vivo bioequivalence is already well established. This can form the basis of CRDS for BCS Class 1 and 3 compounds, unless additional data are generated to justify the further widening of these limits for a specific drug product.
During the experiments for continuous process improvements of JNJ-1, a new crystal form has been isolated from the drug substance crude crystallization step. The new form appeared to be the thermodynamically favoured form in the process conditions. […]

[3] = Food effect (high-fat meal) on absorption; assay type: in vivo; conditions: clinically relevant dose strengths
From the text: as §1
The integration of the biopharmaceutical parameters relevant for drug absorption in a more physiological context further expanded the risk assessment. For this, a PBBM model was developed and validated for JNJ-1 while using GastroPlus™ (version 8.5). Based on the available physicochemical properties, in vitro biopharmaceutical experimentation, biorelevant dissolution data, and clinical PK parameters, the model was able to simulate the in vivo observed clinical PK data.

[4] = set-up: method as in PMID 25182387; conditions: cited from earlier work
[5] = set-up: method as in PMID 25182387; conditions: pH 4.5 and 6.8; cited from earlier work
[6] = virtual simulation, 120 mg tablets; cited from earlier work
[7] = cited from earlier work

Row | SMILES | Solubility FaSSIF ([1]; FaSSIF) | Solubility FeSSIF ([1]; FeSSIF) | Solubility SGF ([1]; SGF) | Intrinsic Dissolution Rate FaSSIF ([2]; FaSSIF) | Intrinsic Dissolution Rate FeSSIF ([2]; FeSSIF) | Intrinsic Dissolution Rate SGF ([2]; SGF) | BCS class (BCS classification) | Effect of a high-fat meal on absorption [3] | BCS class [4] | F2 similarity test of dissolution profiles between two sites [5] | Predicted AUC0-120 hr and Cmax bioequivalence of two sites formulations [6] | Bioequivalence of formulations from the two sites, clinical study [7]
1 | Cc1ccc([C@@H]2O[C@H](CO)[C@@H](O)[C@H](O)[C@H]2O)cc1Cc1ccc(-c2ccc(F)cc2)s1.O [Registered crystal form, canagliflozin hemihydrate] | 540 µg/mL | 5000 µg/mL | 37 µg/mL | 13.8 µg/min/cm^2 | 157.9 µg/min/cm^2 | 3.9 µg/min/cm^2 | BCS class 4 | absence of any effect |  |  |  | 
2 | Cc1ccc(-c2ncc(Cl)cc2-c2ccc(S(C)(=O)=O)cc2)cn1 [etoricoxib] |  |  |  |  |  |  |  |  | BCS II | failed | bioequivalent | bioequivalent
